Test results published in ChEMBL document CHEMBL1201862, “PubChem BioAssay data set” (2004).
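A five-concentration, 48-hour dose response in 96-well plates underlies each endpoint, interpolated linearly between surrounding concentrations. GI50 = concentration required for 50% inhibition of growth.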 Activity calls are given as the source filed them. Cut-off read from the data, not from the text of the source: active = GI50 up to about 1.1 µM and inactive = higher.

What was measured:
Assay in all cases: NCI tumour cell line growth inhibition, 48 h
[1] = system: UACC-257
[2] = system: Hs-578T
[3] = system: NCI/ADR-RES
[4] = system: LOX IMVI
[5] = system: CAKI-1
[6] = system: MDA-MB-231
[7] = system: IGROV-1
[8] = system: RXF 393
[9] = system: MCF7
[10] = system: COLO 205
[11] = system: OVCAR-5
[12] = system: M14
[13] = system: PC-3
[14] = system: NCI-H522
[15] = system: HL-60
[16] = system: SW-620
[17] = system: A498
[18] = system: OVCAR-4
[19] = system: HCC 2998

| SMILES | GI50 [1] | GI50 [2] | GI50 [3] | GI50 [4] | GI50 [5] | GI50 [6] | GI50 [7] | GI50 [8] | GI50 [9] | GI50 [10] | GI50 [11] | GI50 [12] | GI50 [13] | GI50 [14] | GI50 [15] | GI50 [16] | GI50 [17] | GI50 [18] | GI50 [19] |
| --- | --- | --- | --- | --- | --- | --- | --- | --- | --- | --- | --- | --- | --- | --- | --- | --- | --- | --- | --- |
| CC(O)C1(CNc2cc(Cl)nc(N)n2)CC(CCc2ccccc2)C1 (stereo unspecified) | 4.56 µM (inactive) | 17.3 µM (inactive) | 4.1 µM (inactive) | 3.92 µM (inactive) | 11 µM (inactive) | 10.7 µM (inactive) | 13.6 µM (inactive) | 16.6 µM (inactive) | 0.108 µM (active) | 15.5 µM (inactive) | 17.2 µM (inactive) | 17.9 µM (inactive) | 11.6 µM (inactive) | 8.41 µM (inactive) | 14.1 µM (inactive) | 15.8 µM (inactive) | 13.7 µM (inactive) | 10.2 µM (inactive) | – |
| CCC1C(C#N)=C(N)OC2=C1C(=O)CC(C)(C)C2 (stereo unspecified) | 35.9 µM (inactive) | > 100 µM (inactive) | > 100 µM (inactive) | > 100 µM (inactive) | > 100 µM (inactive) | > 100 µM (inactive) | > 100 µM (inactive) | – | > 100 µM (inactive) | > 100 µM (inactive) | > 100 µM (inactive) | > 100 µM (inactive) | > 100 µM (inactive) | > 100 µM (inactive) | > 100 µM (inactive) | > 100 µM (inactive) | > 100 µM (inactive) | > 100 µM (inactive) | > 100 µM (inactive) |
| O=c1[nH]nc(Cc2ccccc2)n1/N=C/c1ccc(/C=N/n2c(Cc3ccccc3)n[nH]c2=O)cc1 | > 100 µM (inactive) | > 100 µM (inactive) | > 100 µM (inactive) | > 100 µM (inactive) | > 100 µM (inactive) | 38.8 µM (inactive) | > 100 µM (inactive) | 35.3 µM (inactive) | > 100 µM (inactive) | > 100 µM (inactive) | > 100 µM (inactive) | > 100 µM (inactive) | > 100 µM (inactive) | > 100 µM (inactive) | 40.5 µM (inactive) | > 100 µM (inactive) | > 100 µM (inactive) | > 100 µM (inactive) | – |
| Cc1c2c(n3c(nc4ccccc43)c1C#N)NCC2 | > 10 µM (inactive) | > 10 µM (inactive) | > 10 µM (inactive) | > 10 µM (inactive) | > 10 µM (inactive) | > 10 µM (inactive) | > 10 µM (inactive) | > 10 µM (inactive) | > 10 µM (inactive) | > 10 µM (inactive) | > 10 µM (inactive) | > 10 µM (inactive) | > 10 µM (inactive) | – | > 10 µM (inactive) | > 10 µM (inactive) | > 10 µM (inactive) | > 10 µM (inactive) | – |
| COc1cc(/C=C2\CCC(C)C3C2=NN(C(C)=O)C3c2cc(OC)c(OC)c(OC)c2)cc(OC)c1OC (stereo unspecified) | > 59.8 µM (inactive) | 45.8 µM (inactive) | – | > 100 µM (inactive) | 14.2 µM (inactive) | > 72.9 µM (inactive) | 3.13 µM (inactive) | 43.5 µM (inactive) | > 77.6 µM (inactive) | > 100 µM (inactive) | 10.2 µM (inactive) | > 100 µM (inactive) | > 100 µM (inactive) | 5.09 µM (inactive) | > 91.6 µM (inactive) | > 100 µM (inactive) | > 100 µM (inactive) | > 100 µM (inactive) | > 100 µM (inactive) |
| O=c1oc2ccccc2cc1-c1cc2ccccn2c1 | > 100 µM (inactive) | > 100 µM (inactive) | > 100 µM (inactive) | > 100 µM (inactive) | > 100 µM (inactive) | > 100 µM (inactive) | > 100 µM (inactive) | > 100 µM (inactive) | 0.5 µM (active) | > 100 µM (inactive) | > 100 µM (inactive) | > 100 µM (inactive) | > 100 µM (inactive) | > 100 µM (inactive) | > 100 µM (inactive) | > 100 µM (inactive) | > 100 µM (inactive) | > 100 µM (inactive) | – |
| CC(Br)C(=O)Nc1ccc(C(=O)O)c(O)c1 (stereo unspecified) | 42.4 µM (inactive) | 33.4 µM (inactive) | 49.5 µM (inactive) | 34.5 µM (inactive) | > 100 µM (inactive) | 68.2 µM (inactive) | > 100 µM (inactive) | 53.6 µM (inactive) | 83.4 µM (inactive) | > 100 µM (inactive) | > 100 µM (inactive) | 33.4 µM (inactive) | 34 µM (inactive) | 20 µM (inactive) | 26.6 µM (inactive) | 60.8 µM (inactive) | > 100 µM (inactive) | 45.4 µM (inactive) | – |
| O=C1CCC(=O)N1CNc1ccc2c(c1)Sc1ccccc1O2 | 46.7 µM (inactive) | 44.7 µM (inactive) | 42.9 µM (inactive) | 27.3 µM (inactive) | 32.7 µM (inactive) | 41.9 µM (inactive) | 38.9 µM (inactive) | 22.5 µM (inactive) | 43.1 µM (inactive) | 18 µM (inactive) | 43.9 µM (inactive) | 27.2 µM (inactive) | 32 µM (inactive) | 23.8 µM (inactive) | 4.99 µM (inactive) | 27.9 µM (inactive) | 53 µM (inactive) | 33.7 µM (inactive) | – |
| COC(=O)[C@]12CCC(=O)N1[C@H](C(=O)O)Cc1c2[nH]c2ccccc12 | > 100 µM (inactive) | > 100 µM (inactive) | > 100 µM (inactive) | > 100 µM (inactive) | > 100 µM (inactive) | > 100 µM (inactive) | > 100 µM (inactive) | > 100 µM (inactive) | > 100 µM (inactive) | > 100 µM (inactive) | > 100 µM (inactive) | > 100 µM (inactive) | > 100 µM (inactive) | > 100 µM (inactive) | – | > 100 µM (inactive) | > 100 µM (inactive) | > 100 µM (inactive) | > 100 µM (inactive) |
| COc1cc(CNC(=S)CCCCCCCCCCC(C)C)ccc1O | 38.5 µM (inactive) | 22.2 µM (inactive) | 46.3 µM (inactive) | 41.9 µM (inactive) | – | > 100 µM (inactive) | 44.2 µM (inactive) | > 100 µM (inactive) | 41.5 µM (inactive) | 70.6 µM (inactive) | > 100 µM (inactive) | 48.4 µM (inactive) | – | – | 13.3 µM (inactive) | > 100 µM (inactive) | 31.6 µM (inactive) | 53.6 µM (inactive) | 63.1 µM (inactive) |
| O=C(c1ccccc1)N1N=C(C(F)(F)F)CC1(O)C(F)(F)F (stereo unspecified) | > 100 µM (inactive) | > 100 µM (inactive) | > 100 µM (inactive) | > 100 µM (inactive) | – | > 100 µM (inactive) | – | – | > 100 µM (inactive) | > 100 µM (inactive) | > 100 µM (inactive) | > 100 µM (inactive) | > 100 µM (inactive) | > 100 µM (inactive) | > 100 µM (inactive) | > 100 µM (inactive) | > 100 µM (inactive) | > 100 µM (inactive) | > 100 µM (inactive) |
| O=c1[nH]c2ccc(Cl)cc2o1 | > 100 µM (inactive) | > 100 µM (inactive) | > 100 µM (inactive) | > 100 µM (inactive) | > 100 µM (inactive) | > 100 µM (inactive) | > 100 µM (inactive) | > 100 µM (inactive) | > 100 µM (inactive) | > 100 µM (inactive) | > 100 µM (inactive) | > 100 µM (inactive) | > 100 µM (inactive) | 96.4 µM (inactive) | > 100 µM (inactive) | > 100 µM (inactive) | > 100 µM (inactive) | > 100 µM (inactive) | – |
| O=C1NC(=O)C(C(c2ccc(Cl)cc2)C2C(=O)NC(=O)NC2=O)C(=O)N1.c1ccncc1 | > 100 µM (inactive) | > 100 µM (inactive) | > 100 µM (inactive) | > 100 µM (inactive) | > 100 µM (inactive) | > 100 µM (inactive) | > 100 µM (inactive) | 58.9 µM (inactive) | > 100 µM (inactive) | > 100 µM (inactive) | > 100 µM (inactive) | > 100 µM (inactive) | > 100 µM (inactive) | > 100 µM (inactive) | > 100 µM (inactive) | > 100 µM (inactive) | > 100 µM (inactive) | > 100 µM (inactive) | – |
| COc1cc(-c2oc(/C=N/c3ccccc3)c([N+](=O)[O-])c2-c2ccc(O)c(OC)c2)ccc1O | 27 µM (inactive) | 39.6 µM (inactive) | 22.8 µM (inactive) | 9.57 µM (inactive) | 21.8 µM (inactive) | 27.5 µM (inactive) | 15.4 µM (inactive) | 22.8 µM (inactive) | 23.9 µM (inactive) | 20.3 µM (inactive) | 35.5 µM (inactive) | 32.1 µM (inactive) | 18.7 µM (inactive) | 12.5 µM (inactive) | 0.412 µM (active) | 22.9 µM (inactive) | – | 19.1 µM (inactive) | 15 µM (inactive) |
| Cc1ccccc1NC(=O)/C(C#N)=N\Nc1[nH]cnc1C(N)=O | 15.2 µM (inactive) | 24.3 µM (inactive) | 2.45 µM (inactive) | – | 2.59 µM (inactive) | 7.46 µM (inactive) | 4.88 µM (inactive) | 15.3 µM (inactive) | 21.6 µM (inactive) | 21.9 µM (inactive) | 40.3 µM (inactive) | 2.66 µM (inactive) | 4.44 µM (inactive) | 18 µM (inactive) | > 100 µM (inactive) | 2.89 µM (inactive) | – | 34.1 µM (inactive) | 2.92 µM (inactive) |
| COc1cc(Cn2c3c(c4cc(O)ccc42)Cc2ccccc2C3=O)cc(OC)c1 | > 100 µM (inactive) | > 100 µM (inactive) | 21.3 µM (inactive) | 76.4 µM (inactive) | 32.7 µM (inactive) | 31 µM (inactive) | 44.8 µM (inactive) | > 100 µM (inactive) | 20.7 µM (inactive) | 28.9 µM (inactive) | 19.1 µM (inactive) | 68.1 µM (inactive) | 56.5 µM (inactive) | – | > 100 µM (inactive) | 54.5 µM (inactive) | > 100 µM (inactive) | 19.9 µM (inactive) | – |
